According to article PMC6333442, “Conserved allosteric pathways for activation of TRPV3 revealed through engineering vanilloid-sensitivity” (eLife, 2019):

Assays:
[1] = system: TRPV3-6M/V2P (pore domain of rat TRPV2 in TRPV3-6M); test: Two-electrode voltage clamp, TRPV3-6M/V2P chimera in oocytes; format: cell-based, mouse; details: RR 50 µM
Method: All channel constructs were expressed in Xenopus laevis oocytes and studied using the two-electrode voltage clamp technique (TEVC) following 1–4 days of incubation after cRNA injection. The animal care and experimental procedures were performed in accordance with the Guide for the Care and Use of Laboratory Animals and were approved by the Animal Care and Use Committee of the National Institute of Neurological Disorders and Stroke (Animal protocol number 1253–17). Oocytes were removed surgically and incubated with agitation for 1 hr in a solution containing (in mM) 82.5 NaCl, 2.5 KCl, 1 MgCl2, 5 HEPES, pH 7.6 (with NaOH), and collagenase (2 mg/ml; Worthington Biochemical, Lakewood, NJ). Defolliculated oocytes were injected with cRNA for each of the constructs and incubated at 17°C in a solution containing (in mM) 96 NaCl, 2 KCl, 1 MgCl2, 1.8 CaCl2, 5 HEPES, pH 7.6 (with NaOH), and gentamicin (50 μg/ml, GIBCO-BRL, Gaithersburg, MD). Oocyte membrane voltage was controlled using an OC-725C oocyte clamp (Warner Instruments, Hamden, CT). Data were filtered at 1–3 kHz and digitized at 20 kHz using pClamp software (Molecular Devices, Sunnyvale, CA) and a Digidata 1440A digitizer (Axon Instruments). Microelectrode resistances were 0.1–1 MΩ when filled with 3 M KCl. For recording TRP channel currents, the external recording solution contained (in mM) 100 KCl, 10 HEPES, pH 7.6 (with KOH). […]
For temperature-activation experiments, calcium-activated chloride currents were minimized by using calcium-free solution containing 30 µM Caccinh-A01 and recording at negative membrane voltages. Heat stimuli were achieved by passing the external recording solution through glass capillary spirals immersed in a water bath maintained at about 70°C, and recordings were performed during constant perfusion with temperature measured using a thermistor (TA-29, Warner Instruments) located close to the cell. […] The mean I vs T relations were calculated by automatically binning each of the recordings in temperature intervals of 2°C, and averaging a single data point within each interval per cell. […]

TRPV3-6M + 5PM = target: T1, TRPV3-6M + 5PM (Mus musculus, UniProt Q8K424, A560T/A606V/F522S/F625L/F656I/F666Y/H523E/L557M/Q580E/V587L/W521Y); test: Two-electrode voltage clamp, TRPV3-6M + 5PM in oocytes; format: cell-based; details: capsaicin 20 μM, ±60 mV
T1 construct: expressed in transfected cells; host or cells: Xenopus laevis oocytes
T1 sequence (Q8K424 1-791 W521Y/F522S/H523E/L557M/A560T/Q580E/V587L/A606V/F625L/F656I/F666Y): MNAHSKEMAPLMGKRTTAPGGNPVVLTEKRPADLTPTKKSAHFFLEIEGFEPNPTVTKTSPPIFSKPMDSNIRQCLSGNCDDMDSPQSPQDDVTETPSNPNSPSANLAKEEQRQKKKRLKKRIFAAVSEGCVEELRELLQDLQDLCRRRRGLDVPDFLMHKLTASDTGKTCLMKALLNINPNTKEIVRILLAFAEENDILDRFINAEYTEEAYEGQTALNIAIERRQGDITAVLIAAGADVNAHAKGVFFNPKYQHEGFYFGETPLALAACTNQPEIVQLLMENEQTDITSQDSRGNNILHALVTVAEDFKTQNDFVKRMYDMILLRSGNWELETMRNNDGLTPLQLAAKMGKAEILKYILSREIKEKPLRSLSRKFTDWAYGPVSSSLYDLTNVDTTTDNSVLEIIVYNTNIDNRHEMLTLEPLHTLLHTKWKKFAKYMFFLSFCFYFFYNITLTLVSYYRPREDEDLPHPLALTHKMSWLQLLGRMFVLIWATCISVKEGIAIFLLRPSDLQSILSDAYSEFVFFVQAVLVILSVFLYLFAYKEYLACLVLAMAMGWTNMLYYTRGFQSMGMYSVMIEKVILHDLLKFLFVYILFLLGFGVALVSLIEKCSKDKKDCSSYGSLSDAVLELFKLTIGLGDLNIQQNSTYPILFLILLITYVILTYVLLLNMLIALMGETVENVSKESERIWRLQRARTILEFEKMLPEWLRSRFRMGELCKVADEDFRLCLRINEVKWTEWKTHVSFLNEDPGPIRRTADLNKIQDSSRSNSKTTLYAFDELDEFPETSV
Method: All channel constructs were expressed in Xenopus laevis oocytes and studied using the two-electrode voltage clamp technique (TEVC) following 1–4 days of incubation after cRNA injection. The animal care and experimental procedures were performed in accordance with the Guide for the Care and Use of Laboratory Animals and were approved by the Animal Care and Use Committee of the National Institute of Neurological Disorders and Stroke (Animal protocol number 1253–17). Oocytes were removed surgically and incubated with agitation for 1 hr in a solution containing (in mM) 82.5 NaCl, 2.5 KCl, 1 MgCl2, 5 HEPES, pH 7.6 (with NaOH), and collagenase (2 mg/ml; Worthington Biochemical, Lakewood, NJ). Defolliculated oocytes were injected with cRNA for each of the constructs and incubated at 17°C in a solution containing (in mM) 96 NaCl, 2 KCl, 1 MgCl2, 1.8 CaCl2, 5 HEPES, pH 7.6 (with NaOH), and gentamicin (50 μg/ml, GIBCO-BRL, Gaithersburg, MD). Oocyte membrane voltage was controlled using an OC-725C oocyte clamp (Warner Instruments, Hamden, CT). Data were filtered at 1–3 kHz and digitized at 20 kHz using pClamp software (Molecular Devices, Sunnyvale, CA) and a Digidata 1440A digitizer (Axon Instruments). Microelectrode resistances were 0.1–1 MΩ when filled with 3 M KCl. For recording TRP channel currents, the external recording solution contained (in mM) 100 KCl, 10 HEPES, pH 7.6 (with KOH). Experiments were performed at room temperature (~22°C), except as indicated otherwise. […] Current time courses were obtained by stepping membrane voltage every 2 s from a holding potential of 0 mV to either −60 or +60 mV for 100 ms, and plotting the mean steady-state current at the end of each voltage step as a function of total recording time. I-V relations were obtained similarly, but voltage was stepped every 2 s to a different value, in 10 mV increments and starting at −60 mV.

SMILES | block of RTx-activated current [1] | channel activation (current response) (TRPV3-6M + 5PM)
N.N.N.N.N.N.N.N.N.N.N.N.N.N.[Cl-].[Cl-].[Cl-].[Cl-].[Cl-].[Cl-].[O-2].[O-2].[Ru+3].[Ru+3].[Ru+4] [RR, ruthenium red] | readily blocked | –
COc1cc(CNC(=O)CCCC/C=C/C(C)C)ccc1O [capsaicin] | – | cannot be activated
